From US7482351B2, “4-pyrimidineamine compounds and their uses as anti-proliferative agents” (Rigel Pharmaceuticals, Inc., priority 2004, dated 2009) come the findings set out here.

Type in all cases: cell-based
The subject of experiment [1] is HCT116 (colorectal carcinoma) cells. Kind of experiment: in vitro inhibition of HCT116 cells. The method, then:
(§1) Various exemplary 5-fluoro-4-pyrmidineamine compounds (illustrated in TABLE 1, infra) were synthesized as described herein and tested for their ability to inhibit A549 (lung carcinoma), DLD-1 (colorectal adenocarcinoma), H1299 (non small cell lung carcinoma), HCT116 (colorectal carcinoma), HELA (cervical adenocarcinoma) and/or U2OS (bone osterosarcoma) cells in vitro. […] A blank indicates the particular compound was […].

Experiment [2] deals with HELA (cervical adenocarcinoma) cells. Nature of the experiment: in vitro inhibition of HELA cells. The procedure:
as §1

In experiment [3] the test system is H1299 (non small cell lung carcinoma) cells. Kind of experiment: in vitro inhibition of H1299 cells. The method, then:
as §1

Experiment [4] deals with ACHN (renal cell adenocarcimona). Kind of experiment: additional cell line ACHN. The procedure: (§2) Compound 1 was tested against the following additional cell lines: ACHN (renal cell adenocarcimona), JAR (placental choriocarcinoma), MCF7 (estrogen-dependent breast adenocarcinoma), MDA-MB-231 (estrogen independent breast adenocarcinoma), SKMEL28 (human melanoma) and SKMEL5 (human melanoma). In all cases, the IC50 was less than 1 μM.

The next experiment deals with SKMEL28 (human melanoma). Kind of experiment: additional cell line SKMEL28. The procedure:
as §2

Experiment [5] deals with JAR (placental choriocarcinoma). Nature of the experiment: additional cell line JAR. The method, then: as §2
Experiment [6] relates to U2OS (bone osterosarcoma) cells. Nature of the experiment: in vitro inhibition of U2OS cells. The method, then:
as §1

Experiment [7] relates to A549 (lung carcinoma) cells. Nature of the experiment: in vitro inhibition of A549 cells. The procedure:
as §1

Experiment [8] has as its system MDA-MB-231 (estrogen independent breast adenocarcinoma). Nature of the experiment: additional cell line MDA-MB-231. Conditions: MDA-MB-231 cell line. The procedure:
as §2

For experiment [9], the system named is MCF7 (estrogen-dependent breast adenocarcinoma). Nature of the experiment: additional cell line MCF7. The method, then:
as §2

The next experiment relates to SKMEL5 (human melanoma). Nature of the experiment: additional cell line SKMEL5. The procedure:
as §2

Experiment [10] deals with DLD-1 (colorectal adenocarcinoma) cells. Kind of experiment: in vitro inhibition of DLD-1 cells. As to conditions: DLD-1 (colorectal adenocarcinoma) cells in vitro. The method, then:
as §1

Usually IC50 stands for the concentration that gives 50% inhibition. Read a low IC50 as greater potency. Take `CN(c1ccc2c(c1)OCCO2)c1nc(Cl)ncc1F` [Compound 1, 2-chloro-N-4-(3,4-ethylenedioxyphenyl)-5-fluoro-N-4-methyl-4-pyrimidineamine]: the IC50 in [1] is ≤ 1 µM; in experiment [2], ≤ 1 µM; in experiment [3] it was ≤ 1 µM; in experiment [4], < 1 µM; with SKMEL28 (human melanoma) it was < 1 µM; in experiment [5], < 1 µM. Moreover, the IC50 in [6] was ≤ 1 µM; in [7], ≤ 1 µM; in experiment [8], < 1 µM; in [9], < 1 µM; with SKMEL5 (human melanoma), < 1 µM.
As to `COc1ccc(N(C)c2nc(Cl)ncc2F)cc1OC` [Compound 2], the IC50 in [3] and in experiment [7] was ≤ 1 µM in each case.
For the compound `COc1c(Cl)cc(N(C)c2nc(Cl)ncc2F)cc1Cl` [Compound 5], the results for the IC50 in experiment [3] and in experiment [7] were ≤ 10 µM and 1 to 10 µM, respectively.
In the same order, the values of `COc1cc(N(C)c2nc(Cl)ncc2F)ccc1Cl` [Compound 6] are > 20 µM and > 20 µM.
Taken in the same sequence, the figures for `COc1ccc(N(C)c2nc(Cl)ncc2F)cc1Cl` [Compound 7] were ≤ 1 µM and ≤ 1 µM.
Taken in the same sequence, the figures for `CCCN(c1ccc(OC)c(Cl)c1)c1nc(Cl)ncc1F` [Compound 9] were ≤ 10 µM and 1 to 10 µM.
Turning to `COc1cc(N(C)c2nc(Cl)ncc2F)cc(OC)c1OC` [Compound 10], the IC50 in experiment [3] and in experiment [7] was > 20 µM each time.
On to `Cc1cc(N(C)c2nc(Cl)ncc2F)cc(C)c1Cl` [Compound 11], for which the IC50 in [3] and in experiment [7] was > 20 µM each time.
Turning to `COc1cc(OC)cc(N(C)c2nc(Cl)ncc2F)c1` [Compound 12], the IC50 in experiment [3] and in experiment [7] was > 20 µM in each case.
`COc1ncc(F)c(N(C)c2ccc3c(c2)OCCO3)n1` [Compound 15]: the concentration for half-maximal inhibition (IC50) in experiment [3] is 1 to 10 µM; in experiment [7], ≤ 10 µM.
Taken in the same sequence, the figures for `CN(c1ccc2c(c1)OCCO2)c1nc(-c2ccccc2)ncc1F` [Compound 18, N4-(3,4-Ethylenedioxyphenyl)-5-fluoro-N-4-methyl-2-(phenyl)-4-pyrimidineamine] were ≤ 1 µM and ≤ 1 µM.
As for `COc1ccc(-c2ncc(F)c(N(C)c3ccc4c(c3)OCCO4)n2)cc1OC` [Compound 20, N4-(3,4-Ethylenedioxyphenyl)-2-(3,4-dimethoxyphenyl)-5-fluoro-N-4-methyl-4-pyrimidineamine], the half-maximal inhibitory concentration (IC50) in experiment [1], in experiment [2], in experiment [3], in experiment [10], in [6] and in [7] was > 20 µM throughout.
In the case of `CN(c1ccc2c(c1)OCCO2)c1nc(-c2ccc3c(c2)OCO3)ncc1F` [Compound 21, N4-(3,4-Ethylenedioxyphenyl)-5-fluoro-N-4-methyl-2-(3,4-methylenedioxyphenyl)-4-pyrimidineamine], the 50% inhibitory concentration (IC50) in experiment [1] was ≤ 20 µM; in experiment [2], ≤ 20 µM; in experiment [3], 1 to 10 µM; in [10], ≤ 20 µM; in experiment [6], ≤ 20 µM; in experiment [7], ≤ 10 µM.
For the compound `CN(c1ccc2c(c1)OCCO2)c1nc(-c2ccco2)ncc1F` [Compound 22, N4-(3,4-Ethylenedioxyphenyl)-5-fluoro-2-(2-furyl)-N-4-methyl-4-pyrimidineamine], the 50% inhibitory concentration (IC50) is ≤ 10 µM in experiment [1]; ≤ 10 µM in experiment [2]; ≤ 1 µM in experiment [3]; ≤ 10 µM in experiment [10]; ≤ 10 µM in [6]; ≤ 1 µM in [7].
Turning to `CN(c1ccc2c(c1)OCCO2)c1nc(-c2cccc(N)c2)ncc1F` [Compound 23, 2-(3-Aminophenyl)-N-4-(3,4-ethylenedioxyphenyl)-5-fluoro-N-4-methyl-4-pyrimidineamine], the IC50 in experiment [1] is ≤ 10 µM; in [2] it was ≤ 10 µM; in [3], ≤ 1 µM; in experiment [10], ≤ 10 µM; in experiment [6], ≤ 10 µM; in [7], ≤ 1 µM.
With `CN(c1ccc2c(c1)OCCO2)c1nc(-c2ccoc2)ncc1F` [Compound 26, N4-(3,4-Ethylenedioxyphenyl)-5-fluoro-2-(3-furyl)-N-4-methyl-4-pyrimidineamine], the 50% inhibitory concentration (IC50) in experiment [1], in experiment [2], in experiment [3], in experiment [10], in experiment [6] and in [7] was ≤ 1 µM each time.
For `CN(c1ccc2c(c1)OCCO2)c1nc(-c2cccnc2)ncc1F` [Compound 27, N4-(3,4-Ethylenedioxyphenyl)-5-fluoro-N-4-methyl-2-(pyridin-3-yl)-4-pyrimidineamine], the results for the IC50 in experiment [3] and in experiment [7] were 1 to 10 µM and ≤ 10 µM, respectively.
As to `CN(c1ccc2c(c1)OCCO2)c1nc(-c2ccncc2)ncc1F` [Compound 28, N4-(3,4-Ethylenedioxyphenyl)-5-fluoro-N-4-methyl-2-(pyridin-4-yl)-4-pyrimidineamine], the IC50 in [3] and in [7] was ≤ 1 µM in each case.
With `Cc1noc(C)c1-c1ncc(F)c(N(C)c2ccc3c(c2)OCCO3)n1` [Compound 29, 2-(3,5-Dimethylisoxazol-4-yl)-N-4-(3,4-ethylenedioxyphenyl)-5-fluoro-N-4-methyl-4-pyrimidineamine], the values for the IC50 in experiment [3] and in experiment [7] were 1 to 10 µM and ≤ 10 µM, respectively.
In the same order, the values of `CN(c1ccc2c(c1)OCCO2)c1nc(-c2nccs2)ncc1F` [Compound 30, N4-(3,4-Ethylenedioxyphenyl)-5-fluoro-N-4-methyl-2-(thiazol-2-yl)-4-pyrimidineamine] are 1 to 10 µM and ≤ 10 µM.
For `CN(c1ccc2c(c1)OCCO2)c1nc(-c2ccc[nH]2)ncc1F` [Compound 31, N4-(3,4-Ethylenedioxyphenyl)-5-fluoro-N-4-methyl-2-(1H-pyrrol-2-yl)-4-pyrimidineamine], the IC50 in experiment [1], in experiment [2], in [3], in experiment [10], in experiment [6] and in experiment [7] was ≤ 1 µM each time.
Regarding `Cc1ccc(-c2ncc(F)c(N(C)c3ccc4c(c3)OCCO4)n2)s1` [Compound 33, N4-(3,4-Ethylenedioxyphenyl)-5-fluoro-N-4-methyl-2-(5-methyl-2-thienyl)-4-pyrimidineamine], the IC50 in experiment [3] is 1 to 10 µM; in [7] it was ≤ 10 µM.
Taken in the same sequence, the figures for `Cc1cscc1-c1ncc(F)c(N(C)c2ccc3c(c2)OCCO3)n1` [Compound 34, N4-(3,4-Ethylenedioxyphenyl)-5-fluoro-N-4-methyl-2-(4-methyl-3-thienyl)-4-pyrimidineamine] were ≤ 1 µM and ≤ 1 µM.
In the same order, the values of `CN(c1ccc2c(c1)OCCO2)c1nc(-c2cc3ccccc3s2)ncc1F` [Compound 35, 2-(Benzothiophen-2-yl)-N-4-(3,4-ethylenedioxyphenyl)-5-fluoro-N-4-methyl-4-pyrimidineamine] are > 20 µM and > 20 µM.
In the same order, the values of `CN(c1ccc2c(c1)OCCO2)c1nc(-c2csc3ccccc23)ncc1F` [Compound 36, 2-(Benzothiophen-3-yl)-N-4-(3,4-ethylenedioxyphenyl)-5-fluoro-N-4-methyl-4-pyrimidineamine] are > 20 µM and > 20 µM.
For `CN(c1ccc2c(c1)OCCO2)c1nc(-c2ccc(Cl)s2)ncc1F` [Compound 37, 2-(5-Chloro-2-thienyl)-N-4-(3,4-ethylenedioxyphenyl)-5-fluoro-N-4-methyl-4-pyrimidineamine], the IC50 is 10 to 20 µM in experiment [3] and > 20 µM in [7].
In the same order, the values of `CN(c1ccc2c(c1)OCCO2)c1nc(-c2ccsc2C=O)ncc1F` [Compound 39, N4-(3,4-ethylenedioxyphenyl)-5-fluoro-2-(2-formylthien-3-yl)-N-4-methyl-4-pyrimidineamine] are ≤ 1 µM and ≤ 1 µM.
Taken in the same sequence, the figures for `CNCc1sccc1-c1ncc(F)c(N(C)c2ccc3c(c2)OCCO3)n1` [Compound 40, N4-(3,4-ethylenedioxyphenyl)-5-fluoro-N-4-methyl-2-(2-methylaminomethylenethien-3-yl)-4-pyrimidineamine] were 1 to 10 µM and ≤ 10 µM.
Regarding `CN(c1ccc2c(c1)OCCO2)c1nc(-c2cc[s+]([O-])c2)ncc1F` (stereo not drawn) [Compound 41, N4-(3,4-ethylenedioxyphenyl)-5-fluoro-N-4-methyl-2-(1-oxide-3-thienyl)-4-pyrimidineamine], the IC50 is 1 to 10 µM in experiment [3] and ≤ 10 µM in [7].
Taken in the same sequence, the figures for “N4-(3,4-Ethylenedioxyphenyl)-5-fluoro-2-(3-hydroxyphenyl)-N-4-methyl-4-pyrimidineamine [Compound 19]” were 1 to 10 µM and ≤ 10 µM.
